Measured values from US7713985B2, “Adenosine Aa2 receptor antagonists” (Schering Corporation, priority 2006, dated 2010).

Biological target: T1, Human A2a Adenosine Receptor (Homo sapiens, UniProt P29274)
T1 construct: purchased Receptor Biology, Inc., Beltsville, Md; RB-HA2a
Assay: Human adenosine A2a receptor competition binding assay
Conditions: [3H]-SCH 58261 displacement, human A2a membranes
Protocol: Human Adenosine A2a and A1 Receptor Competition Binding Assay Protocol
A2a: Human A2a Adenosine Receptor membranes, Catalog #RB-HA2a, Receptor Biology, Inc., Beltsville, Md. Dilute to 17 μg/100 μl in membrane dilution buffer (see below).
Membrane dilution buffer: Dulbecco's Phosphate Buffered Saline (Gibco/BRL)+10 mM MgCl2.
Compound Dilution Buffer: Dulbecco's Phosphate Buffered Saline (Gibco/BRL)+10 mM MgCl2 supplemented with 1.6 mg/ml methyl cellulose and 16% DMSO. Prepared fresh daily.
A2a: [3H]-SCH 58261, custom synthesis, AmershamPharmacia Biotech, Piscataway, N.J. Stock is prepared at 1 nM in membrane dilution buffer. Final assay concentration is 0.5 nM.
A2a: To determine non-specific binding, add 100 nM CGS 15923 (RBI, Natick, Mass.). Working stock is prepared at 400 nM in compound dilution buffer.
Prepare 1 mM stock solutions of compounds in 100% DMSO. Dilute in compound dilution buffer. Test at 10 concentrations ranging from 3 μM to 30 pM. Prepare working solutions at 4× final concentration in compound dilution buffer.
Perform assays in deep well 96 well plates. Total assay volume is 200 μl. Add 50 μl compound dilution buffer (total ligand binding) or 50 μl CGS 15923 working solution (A2a non-specific binding) or 50 μl NECA working solution (A1 non-specific binding) or 50 μl of drug working solution. Add 50 μl ligand stock ([3H]-SCH 58261 for A2a, [3H]-DPCPX for A1). Add 100 μl of diluted membranes containing the appropriate receptor. Mix. Incubate at room temperature for 90 minutes. Harvest using a Brandel cell harvester onto Packard GF/B filter plates. Add 45 μl Microscint 20 (Packard), and count using the Packard TopCount Microscintillation Counter. Determine IC50 values by fitting the displacement curves using an iterative curve fitting program (Excel). Determine Ki values using the Cheng-Prusoff equation.

T1 sequence (P29274 whole entry): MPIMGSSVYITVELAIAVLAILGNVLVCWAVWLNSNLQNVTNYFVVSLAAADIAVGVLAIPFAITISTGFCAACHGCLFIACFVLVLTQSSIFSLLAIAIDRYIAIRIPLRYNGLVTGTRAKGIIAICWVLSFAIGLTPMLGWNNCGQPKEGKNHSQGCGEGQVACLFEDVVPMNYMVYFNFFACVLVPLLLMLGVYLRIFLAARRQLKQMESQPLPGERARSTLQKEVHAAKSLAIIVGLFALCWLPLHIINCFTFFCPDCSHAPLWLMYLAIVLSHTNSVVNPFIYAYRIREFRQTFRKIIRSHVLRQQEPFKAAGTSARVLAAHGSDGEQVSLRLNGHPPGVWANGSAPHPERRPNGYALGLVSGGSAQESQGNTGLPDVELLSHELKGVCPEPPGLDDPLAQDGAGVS

Compared with `Nc1nc2ccccc2c2nn(Cc3c(Cl)cccc3Cl)c(=O)n12` [Example 8], `Nc1nc2ccccc2c2nn(Cc3cccc(Cl)c3)c(=O)n12` [Example 13] is 2.6-fold lower in Ki: 12 nM for the first, 4.7 nM for the second.

In the case of `Nc1nc2ccccc2c2nn(Cc3cccc(F)c3)c(=O)n12` [Example 12], the Ki is reported as 12.2 nM.
